Source: paper PMC6691587, “New CXCR1/CXCR2 inhibitors represent an effective treatment for kidney or head and neck cancers sensitive or refractory to reference treatments” (Theranostics, 2019)
“And” between values parts separate entries of the source, which are not always exact repeats. Identical values can stand only once. Like-named read-outs stand apart in the source and are kept apart here.

Columns and labels:
A498 cells = assay: Ectopic model of RCC (A498 xenograft); assay type: in vivo, nude (nu/nu) female mice
Procedure: (§1) One microgram of total RNA was used for the reverse transcription, using the QuantiTect Reverse Transcription kit (QIAGEN, Hilden, Germany), with blend of oligo (dT) and random primers to prime first-strand synthesis. SYBR master mix plus (Eurogentec) was used for qPCR. The mRNA level was normalized to 36B4 mRNA. The sequences of oligo nucleotides used in our experiments are describe in Table S1.
(§2) These studies were carried out in strict accordance with the recommendations in the Guide for the Care and Use of Laboratory Animals. Our experiments were approved by the ''Comité National Institutionnel d'Ethique pour l'Animal de Laboratoire'' (reference: PEA-255 and PEA-277). Cells were injected subcutaneously into the flank of 5-week-old nude (nu/nu) female mice (Janvier). When the tumor reached 100 mm^3, mice were treated. The tumor volume was determined with a caliper (v = L*l2*0.5).
1-Seven million A498 cells were injected subcutaneously. Mice were treated five times a week for 4 weeks, by gavage with placebo (dextrose water vehicle) or C29 (50 mg/kg).
(§3) Sections of formol-fixed and paraffin-embedded tumors were incubated with monoclonal anti-Ki67 (clone MIB1, DAKO) or anti-CD31 (clone MEC 13.3, BD Pharmingen) antibodies. A biotinylated secondary antibody (DAKO) was applied and binding was detected with the substrate diaminobenzidine against a hematoxylin counterstain.

[1] = tested on: uveal melanoma cells (Mel202); assay: Cell viability, uveal melanoma cells; assay type: cell-based
Procedure: (§4) Fifty microliters of sodium 3′-[1-phenylaminocarbonyl)-3,4-tetrazolium]-bis(4-methoxy-6-nitro) benzene sulfonic acid hydrate (XTT) reagent was added to each well. The assay is based on the cleavage of the yellow tetrazolium salt XTT to form an orange formazan dye by metabolically active cells. This bio-reduction occurs in viable cells only and is related to NAD(P)H production through glycolysis. Therefore, the amount of formazan dye measured at 490 nm directly correlated with the number of metabolically active cells reflecting cell proliferation and viability. Each assay was performed in quadruplicate.
(§5) To determine the selectivity of the activity of the substances tested, the selectivity index (SI) was calculated according to the equation previously described where SI = IC50 of a compound in a normal cell line/IC50 of the same compound in cancer cell line. The IC50 is the concentration required to kill 50% of the cell population.

Molm13 = assay: XTT cell viability assay, Molm13 AML cells; assay type: cell-based, human; conditions: Homo sapiens, MOLM-13, 48 h, SD 10%, mean of three experiments
Outline: (§6)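 Absorbance at 490 nm of the formazan formed from XTT serves as the viability signal. Measurements are made in quadruplicate.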

normal cells (15S) = assay: FACS analysis of apoptotic markers, normal cells; assay type: cell-based; conditions: C29 at 1 µmol/L
Procedure: (§7) Apoptosis analysis: After stimulation, cells were washed with ice-cold PBS and were stained with the annexin-V-fluo staining kit (Roche, Meylan, France) according to the manufacturer's procedure. Fluorescence was measured using the FL2 (AV) and FL3 (propidium iodide, PI) channels of a fluorescence-activated cell sorter apparatus (Calibur cytometer).

[2] = tested on: primary kidney tumor cells (TF); assay: Cell viability, primary kidney tumor cells TF; assay type: cell-based
Procedure: as §4
For the experiments with C29, we confirmed all the results by evaluating the cell viability. Cell viability and cell death was assessed using the ADAM-MC apparatus (NanoEnTek, Guro-gu, Seoul, Korea) based on fluorescent propidium iodide staining according to the manufacturer's instructions.
as §5

A498 = assay: XTT cell viability assay, A498 RCC cells; assay type: cell-based, human; conditions: for IC50: Homo sapiens, A498
Outline: as §6

CAL33 = assay: Ectopic model of HNSCC (CAL33 xenograft); assay type: in vivo, nude (nu/nu) female mice
Procedure: as §1, §2
One million CAL33 were injected subcutaneously.
as §3

HuVEC = assay: XTT cell viability assay, HuVEC; assay type: cell-based, human; conditions: 48 h, CXCL5 or CXCL7 100 ng/ml
Procedure: as §4

RCC4 = assay: XTT cell viability assay, RCC4 RCC cells; assay type: cell-based, human; conditions: Homo sapiens, RCC4, 48 h, SD 10%, mean of three experiments, read-out: IC50 R4 (Kidney RCC)
Outline: as §6

CXCR1 = target: T1, CXCR1 (Homo sapiens, UniProt P25024); assay: Membrane-associated CXCR1 level in HuVEC by flow cytometry; assay type: cell-based; conditions: CXCL7 25 ng/ml 1 h, C29 2.5 µmol/L
T1 construct: CXCR1/2 are expressed on endothelial cells and participate in ELR^+CXCL-mediated angiogenesis; endogenous in cells; host or cells: HuVEC
T1 sequence (P25024 whole entry): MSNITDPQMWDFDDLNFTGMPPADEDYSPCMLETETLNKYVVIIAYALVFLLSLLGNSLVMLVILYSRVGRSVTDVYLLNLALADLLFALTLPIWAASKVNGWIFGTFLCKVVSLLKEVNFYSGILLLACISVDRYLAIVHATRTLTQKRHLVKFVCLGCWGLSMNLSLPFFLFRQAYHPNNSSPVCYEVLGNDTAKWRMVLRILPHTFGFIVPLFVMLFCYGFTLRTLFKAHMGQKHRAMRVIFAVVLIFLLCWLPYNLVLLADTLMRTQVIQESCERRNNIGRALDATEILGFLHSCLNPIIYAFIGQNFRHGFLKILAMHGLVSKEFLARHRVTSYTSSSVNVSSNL

[3] = Pharmacokinetic parameters after oral administration; assay type: in vivo; conditions: plasma, CD-1 mice, oral gavage 50 mg/kg
Procedure: The in vivo pharmacokinetic parameters were determined in CD-1 mice at a dose of 50 mg/kg after oral administration. The plasma samples (400 µL) were mixed with acetonitrile (1 mL) to precipitate the proteins and extract the compound. After mixing and sonication, proteins were precipitated by centrifugation and the supernatants were analyzed by UPLCMS/MS.

[4] = tested on: 786, 786R, CAL27 and CAL27R cells; assay: Apoptosis analysis (annexin-V/PI flow cytometry); assay type: cell-based, human; conditions: sensitive and resistant cells, 2.5 µM, 48 h
Procedure: as §7

[5] = tested on: sunitinib-resistant 786-O cells (786R); assay: XTT cell viability assay, sunitinib-resistant 786-O cells; assay type: cell-based, human; conditions: 1 to 10 µM 48 h, 2.5 µM 24 to 96 h
Procedure: as §4

K562 = assay: XTT cell viability assay, K562 CML cells; assay type: cell-based, human; conditions: Homo sapiens, K562, 48 h, SD 10%, mean of three experiments
Outline: as §6

TF and CC cells = assay: FACS analysis of apoptotic markers, primary tumor cells; assay type: cell-based; conditions: C29 at 1 µmol/L
Procedure: as §7

OCI-AML3 = assay: XTT cell viability assay, OCI-AML3 AML cells; assay type: cell-based, human; conditions: Homo sapiens, OCI-AML-3, 48 h, SD 10%, mean of three experiments, read-out: IC50 L3 (AML)
Outline: as §6

[6] = CAL33 xenograft, 100 mg/kg gavage

Compound: O=C(Nc1cccc(Cl)c1)Nc1nc2ccc([N+](=O)[O-])cc2s1 [C29]
- mRNA level of murine CD31, experimental RCC (A498 cells): decreased
- decrease in the tumor weight, RCC (A498 cells; 50 mg/kg gavage): 40%
- proliferation marker Ki-67, experimental RCC (A498 cells; 50 mg/kg gavage): decreased
- weight loss of the animals, RCC model (A498 cells; 50 mg/kg gavage): did not observe any weight loss
- decrease of the tumor volume at the end of the experiment, RCC (A498 cells; 50 mg/kg gavage five times a week for 4 weeks): more than 65%
- PI3K/AKT and ERK pathways in tumor lysates, experimental RCC (A498 cells; immunoblotting): inhibited PI3K/AKT but not the ERK pathway
- mRNA levels of ERL+CXCL cytokines (CXCL5/7/8), experimental RCC (A498 cells; qPCR, VEGFA not decreased): significantly decreased
- proliferation/survival of uveal melanoma cells (Mel202) ([1]; 2.5 µmol/L): did not affect
- IC50 ([1]; Mel202, CXCR1-/CXCR2-): 10 µM
- Selectivity index Mel202 ([1]; SI = IC50 in normal cells (15S)/IC50 in Mel202): 1.25
- IC50 (Molm13): 7 µM
- apoptotic markers in normal cells (15S) (normal cells (15S)): not the case for normal cells
- IC50 ([2]; CXCR1+/CXCR2+): 3.2 µM
- proliferation of primary kidney tumor cells TF ([2]; Figure S8A-B): significantly decreased
- Selectivity index TF ([2]; SI = IC50 in normal cells (15S)/IC50 in TF): 3.91
- IC50 (A498; CXCR1+/CXCR2+, read-out: IC50 A498): 2.5 µM
- IC50 (A498; XTT assay, 48 h, SD 10%, mean of three experiments, read-out: IC50 498 (Kidney RCC)): 2.5 µM
- Selectivity index A498 (A498; SI = IC50 in normal cells (15S)/IC50 in A498): 5
- mRNA level of murine CD31, experimental HNSCC (CAL33; CAL33 xenograft): decreased
- decrease in the tumor weight, HNSCC (CAL33; [6]): 65%
- proliferation marker Ki-67, experimental HNSCC (CAL33; [6]): decreased
- weight loss of the animals, HNSCC model (CAL33; [6]): did not observe any weight loss
- decrease of the tumor volume at the end of the experiment, HNSCC (CAL33; CAL33 xenograft, 100 mg/kg gavage five times a week for two weeks): more than 65%
- PI3K/AKT and ERK pathways in tumor lysates, experimental HNSCC (CAL33; immunoblotting, CAL33 xenograft): both pathways
- efficacy on experimental HNSCC compared with danirixin and cisplatin (CAL33; oral gavage 100 mg/kg five times a week): more efficient than danirixin, at the same dose, or than the reference treatment with cisplatin
- mRNA levels of ERL+CXCL cytokines, experimental HNSCC (CAL33; qPCR, CAL33 xenograft): Only CXCL5 was decreased
- basal and CXCL5/CXCL7-dependent HuVECs viability (HuVEC): inhibited
- IC50 (RCC4): 5 µM
- CXCR1 levels at the plasma membrane (CXCR1): increased
- half-life ([3]; CD-1, mouse, po, 50 mg/kg, formulated at 7.6 mg/mL, read-out: half-life (t ½)): 3.17 h
- AUC ([3]; mouse): ~1420 ng·h/mL
- Cmax ([3]; mouse): 900 ng/mL and 2.6 µM
- Tmax ([3]; mouse): 0.5 h
- AUC(0-t) ([3]; mouse, read-out: AUC last PO (converted)): 1420 ng·h/mL
- cell death (annexin-V/PI) [4]: induced cell death
- effect on cell viability of sunitinib-resistant 786-O cells [5]: conserved
- IC50 (K562): 2 µM
- apoptotic markers in TF and CC cells (TF and CC cells): detected apoptotic markers
- IC50 (OCI-AML3): 4 µM
